“Also recorded” adds a separate entry of the source.
Experiments:
[1] = tested on: MCF7×2.3.ARO.LetR letrozole-resistant breast cancer cells (Letrozole-R1); experiment: CellTiter-Glo cell viability, letrozole-resistant MCF7x2.3.ARO.LetR; format: cell-based; conditions: letrozole-resistant MCF7 LetR (FIG. 1b, FIG. 4)
Experimental: (§1) Cell culture. MCF7 cell line was obtained from the American Type Culture Collection (ATCC, VA). The cells were tested and authenticated using gene expression and single nucleotide polymorphism genotyping arrays (Hoeflich K P, et al (2009) Clin Cancer Res, 15(14):4649-4664; Hu X, et al (2009) Mol Cancer Res, 7(4):511-522) and cultured in RPMI supplemented with 10% fetal bovine serum, 100 units/ml penicillin, 100 µg/ml streptomycin, 2 mM L-glutamine and NEAA at 37° C. under 5% CO2. Stable aromatase-expressing MCF7 cells (MCF7-ARO) were generated by transfection of a plasmid vector containing the full aromatase gene and a neomycin selection gene. The cells were maintained in androstenedione and all experiments were performed in the presence of androstenedione except where indicated
(§2) The CellTiter-Glo® Luminescent Cell Viability Assay is a homogeneous method to determine the number of viable cells in culture based on quantitation of the ATP present, which signals the presence of metabolically active cells. […]
(§3) The assay assesses the ability of compounds to enter cells and inhibit cell proliferation. The assay principle is based on the determination of the number of viable cells present by quantitating the ATP present in a homogenous assay where addition of the Cell Titer-Glo® reagent results in cell lysis and generation of a luminescent signal through the luciferase reaction. […]
Cell viability assays. […] After 4 days incubation, relative numbers of viable cells were estimated using CellTiter-Glo (Promega, Madison, Wis.) and total luminescence was measured on an Envision plate Reader (PerkinElmer, Foster City, Calif.). […]
Cell viability assays and combination assays: Cells were seeded at 1000-2000 cells/well in 384-well plates for 16 h. […] After 4 days, relative numbers of viable cells were measured by luminescence using Cell Titer-Glo® (Promega) according to the manufacturer's instructions and read on a Wallac Multilabel Reader® (PerkinElmer, Foster City). EC50 values were calculated using Prism® 4.0 software (GraphPad, San Diego). […]

[2] = tested on: MCF7×2.3.CMV.ARO.LetR letrozole-resistant breast cancer cells; experiment: CellTiter-Glo cell viability, MCF7x2.3.CMV.ARO.LetR; format: cell-based; conditions: dose titrations (FIG. 6)
Experimental: as §1, §2, §3

[3] = tested on: cyclin D1, cyclin E, phosphorylated Rb (Ser807/811) and cleaved PARP; experiment: Western blot pathway signaling in MCF7-ARO parental and resistant lines; format: cell-based; conditions: 24 hours of treatment (FIG. 2)
Experimental: Cells were treated for 24 hours with 20 nM GDC-0032 (Parental and Letrozole-R1) or 2.5 μM (Let-R1.GDC-0032-R) and/or 2.5 μM palbociclib.
Taselisib combines well with palbociclib in double-resistant MCF7-ARO cells (FIG. 1c). The effect on viability of taselisib and palbociclib as single agents is shown, respectively. The combination effect of the two drugs is indicated. Starting doses for taselisib were 80 nM for the parental and letrozole-R1 lines and 10 μM for […]. Palbociclib starting doses were 10 μM for all three lines (FIGS. 1a-c). Immunoblots from samples treated for 24 hours with 20 nM taselisib (Parental and Letrozole-R1) or 2.5 (Let-R1.taselisib-R). (D) Increased growth arrest is observed with combined PI3K and CDK4/6 inhibition. Immunoblots from samples treated for 24 hours with 20 nM taselisib (Parental and Letrozole-R1) or 2.5 μM (Let-R1. taselisib-R) and/or 2.5 μM palbociclib. Dotted lines for all viability data are indicative of CTG counts at the beginning of drug treatment. Error bars indicate standard deviation around the mean.

[4] = tested on: MCF-7 breast cancer xenografts; experiment: In vivo tumor efficacy study, MCF-7 breast cancer xenografts; conditions: MCF-7 xenograft mice; for CR: complete responses (100% tumor regression); for PR: partial responses (tumor regression >50% but <100%); for TTP 2X: time to progression 2X; for TTP 2X / AUC/Day % TGI (lower, upper): po qdx21; for AUC/Day % TGI (lower, upper): tumor growth inhibition vs vehicle; for Vol Day 21: tumor volume at day 21, po qdx21 (method b194 gives mm^3)
Experimental: The animals were fed ad libitum water (reverse osmosis, 1 ppm Cl) and NIH 31 Modified and Irradiated Lab Diet® consisting of 18.0% crude protein, 5.0% crude fat, and 5.0% crude fiber. The mice were housed on irradiated ALPHA-Dri® Bed-o'Cobs® Laboratory Animal Bedding in static microisolators on a 12-hour light cycle at 21-22° C. (70-72° F.) and 40-60% humidity. PRC specifically complies with the recommendations of the Guide for Care and Use of Laboratory Animals with respect to restraint, husbandry, surgical procedures, feed and fluid regulation, and veterinary care. The animal care and use program at PRC is accredited by the Association for Assessment and Accreditation of Laboratory Animal Care International (AAALAC), which assures compliance with accepted standards for the care and use of laboratory animals.
Xenografts were initiated with cancer cells, including breast cancer cell lines MCF-7 (Soule H. D. et al (1973) Jour. Nat. Cancer Inst. 51 (5): 1409-1416; Levenson A. S. et al (1997) Cancer Res. 57 (15): 3071-3078; LaCroix M. et al (2004) Breast Res. and Treatment 83 (3): 249-289) and MDA-MB-453 (Vranic S. et al (2011) Onc. Letters 2: 1131-1137; Hall R. E. et al (1994) Euro. Jour. Cancer 30(4):484-490). Cells were cultured in RPMI 1640 medium supplemented with 10% fetal bovine serum, 2 mM glutamine, 100 units/mL penicillin, […] streptomycin sulfate and 25 μg/mL gentamicin. The cells were harvested during exponential growth and resuspended in phosphate buffered saline (PBS) at a concentration of 5×10^6 or 10×10^6 cells/mL depending on the doubling time of the cell line. Tumor cells were implanted subcutaneously in the right flank, and tumor growth was monitored as the average size approached the target range of 100 to 150 mm3. Twenty-one days after tumor implantation, designated as Day 0 of the study, the mice were placed into four groups each consisting of ten mice with individual tumor volumes ranging from 75-172 mm3 and group mean tumor volumes from 120-121 mm3 (see Appendix A). Volume was calculated using the formula: […]
GDC-0032 was supplied as a dry powder in salt form, which contained 73% active agent, and was stored at room temperature protected from light. Drug doses were prepared weekly in 0.5% methylcellulose: 0.2% Tween 80 in deionized water (“Vehicle”) and stored at 4° C. The salt form containing 73% active agent was accounted for in the formulation of GDC-0032 doses. Doses of GDC-0032 were prepared on each day of dosing by diluting an aliquot of the stock with sterile saline (0.9% NaCl). All doses were formulated to deliver the stated mg/kg dosage in a volume of 0.2 mL per 20 grams of body weight (10 mL/kg).
All doses were scaled to the body weights of the individual animals and were provided by the route indicated in each of the figures.
Tumor volume was measured in 2 dimensions (length and width), using Ultra Cal IV calipers (Model 54 10 111; Fred V. Fowler Company), as follows: tumor volume (mm^3)=(length×width^2)×0.5 and analyzed using Excel version 11.2 (Microsoft Corporation). A linear mixed effect (LME) modeling approach was used to analyze the repeated measurement of tumor volumes from the same animals over time (Pinheiro, J. et al (2009); Tan, N. et al (2011) Clin. Cancer Res. 17(6):1394-1404). This approach addresses both repeated measurements and modest dropouts due to any non-treatment-related death of animals before study end. Cubic regression splines were used to fit a nonlinear profile to the time courses of log 2 tumor volume at each dose level. These nonlinear profiles were then related to dose within the mixed model. Tumor growth inhibition as a percentage of vehicle control (% TGI) was calculated as the percentage of the area under the fitted curve (AUC) for the respective dose group per day in relation to the vehicle, using the following formula: % TGI=100×(1−AUCdose/AUCveh). […]

[5] = tested on: pAkt, pPRAS40, pS6RP, pRb, cleaved PARP in MDA-MB-453 tumors; experiment: Protein levels (pharmacodynamic markers) in MDA-MB-453 tumors; format: in vivo, mice; conditions: for levels of pRB (ratio pRb to tRb): GDC-0032 5 mg/kg, palbociclib 50 mg/kg, 1 hr and 4 hr (FIG. 9d)
Experimental: FIGS. 9a-d show ratios of protein levels of mice treated with vehicle, GDC-0032 at 5 mg/kg, palbociclib at 50 mg/kg, and the combination of GDC-0032 at 5 mg/kg+palbociclib at 50 mg/kg, measured at 1 hr and 4 hr.

Row | SMILES | cell viability (CellTiter-Glo) [1] | cell viability (CellTiter-Glo) ([1]; listed as taselisib) | cell viability (CellTiter-Glo) [2] | PI3K pathway signaling (immunoblot) [3] | cleaved PARP (immunoblot) [3] | CR [4] | PR [4] | TTP 2X [4] | AUC/Day % TGI (lower, upper) [4] | Vol Day 21 [4] | levels of pAkt (ratio pAkt to tAkt) ([5]; 5 mg/kg, 1 hr and 4 hr (FIG. 9a)) | levels of pPRAS40 (ratio pPRAS40 to tPRAS40) ([5]; 5 mg/kg, 1 hr and 4 hr (FIG. 9b)) | levels of pS6RP (ratio pS6RP to tS6RP) ([5]; 5 mg/kg, 1 hr and 4 hr (FIG. 9c)) | cell death based on cleaved PARP ([5]; 5 mg/kg, 1 hr and 4 hr (FIG. 9e)) | levels of pRB (ratio pRb to tRb) [5]
1 | Cc1nc(-c2cn3c(n2)-c2ccc(-c4cnn(C(C)(C)C(N)=O)c4)cc2OCC3)n(C(C)C)n1 [GDC-0032, 2-(4-(2-(1-isopropyl-3-methyl-1H-1,2,4-triazol-5-yl)-5,6-dihydrobenzo[f]imidazo[1,2-d][1,4]oxazepin-9-yl)-1H-pyrazol-1-yl)-2-methylpropanamide] | potency remains; also recorded: equally sensitive | similarly sensitive | potency remains | decreases | detected | 0 | 0 | 9.5 | 49 (16, 71) % | 349 | effectively decreased | effectively decreased | effectively decreased | induced cell death | decreased
2 | CC(=O)c1c(C)c2cnc(Nc3ccc(N4CCNCC4)cn3)nc2n(C2CCCC2)c1=O [palbociclib, 6-acetyl-8-cyclopentyl-5-methyl-2-(5-(piperazin-1-yl)pyridin-2-ylamino)pyrido[2,3-d]pyrimidin-7(8H)-one, reference compound] | more resistant | – | – | – | – | 0 | 0 | 8.5 | 39 (0, 63) % | 421 | – | – | – | – | decreased

— patent US20160279142A1, “COMBINATIONS OF A PHOSPHOINOSITIDE 3-KINASE INHIBITOR COMPOUND AND A CDK4/6 INHIBITOR COMPOUND FOR THE TREATMENT OF CANCER” (Genentech, Inc., priority 2015, published 2016)
